Experimental findings from US7670836B2, “Antimicrobial peptide isolated from Penaeus monodon” (priority 2003, dated 2010) are described below.

In assay [1] the test system is Vibrio harveyi. The assay is described as follows: Mortality of tiger shrimp after Vibrio harveyi challenge (FIG. 5). Type of assay: in vivo, Penaeus monodon. On the procedure:
(-⋄-): PBS control (negative control); (-▪-): Vibrio harveyi challenge (positive control); (-▴-): cecropin+Vibrio harveyi (non-monodoncin treatment group); (-●-): monodoncin+Vibrio harveyi (monodoncin treatment group).
Vibrio harveyi is a gram-negative marine bacterium that is in the natural living environment of the tiger shrimp. A suspension of the microorganism […] containing 10^5 cells was used for each tiger shrimp. The suspension was injected into the shrimp abdominal muscle. Hemocytes were collected as Example 1 at different times (from 0 to 72 hours) post-injection. Unchallenged animals were used as controls.

For assay [2], the system named is E. coli. Kind of assay: SEM analysis of interaction of monodoncin with E. coli. The assay is classed as cell-based, Escherichia coli. As to conditions: monodoncin 10 μM, 12 hrs of treatment. On the procedure: Monodoncin at […] was used to treat E. Coli and Vibrios, and the pathogens prior to and after the treatment were monitored under Scanning Electron Microscope (SEM) and Atomic Force Microscope (AFM).
Scanning electron microscopy (SEM) was conducted by incubating […] of E. coli (109 C.F.U./ml) with or without 50 μl monodoncin (10000 μM) at 37° C. for 1 h, 3 h, 6 h, and 12 h. Three milliliters of each of the bacterial suspensions (at various time frames) were fixed by adding 1 ml of 6% glutaraldehyde in 0.1 M sodium cacodylate trihydrate buffer (pH 6.8). After fixation for 1 h at […], the bacterial suspensions were pelleted, the used fixative was removed, 2 ml of the new fixative were added, and the bacteria were incubated for 5 min at […] Two additional 5-min fixations were conducted, followed by addition of 2 ml of 1% osmium tetroxide in 0.1 M cacodylate buffer, and the fixation was allowed to proceed for 30 min at […] The osmium tetroxide was removed, and the bacterial suspensions were washed in 2 ml of 0.1 M cacodylate buffer. […] The SEM mounts were then sputter coated with gold (Edwards S150A sputter coater; Edwards High Vacuum, Crawley, West Sussex, England) and analyzed on a Hitachi H300-3010 scanning image accessory electron microscope.

Assay [3] has as its system Salmonella choleraesuis Strand 74.
Method: (§3) The minimal inhibitory concentration (MIC) and minimal bactericidal concentration (MBC) were obtained to determine bacteriostatic and bactericidal activities, respectively, for each strain of the bacteria listed above. […] The lowest concentration which inhibited bacterial growth was deemed the MIC. The MBC was determined by spreading 100 μl from each tube of the MIC on an LB or TSA plate and incubating overnight.
The test system of assay [4] is Salmonella choleraesuis Strand 75.
Method: as §3
Assay [5] deals with Vibrio harveyi. Kind of assay: microbe, parasite or virus in culture. The procedure: (§1) Monodoncin was tested for its antibacterial activities against various Gram (−) bacteria, including E. coli, Vibrio harveyi, Vibrio alginolyticus, and Salmonella cholesaesuis, various Gram (+) bacteria, such as Aerococcus viridian, and filamentous fungi, such as Fusarium pisi.
(§2) The bacteria were cultured under conventional methods. For example, E. coli strain was cultured in LB, 37° C. The marine microorganisms that are pathogenic for shrimp, such as Vibrio harveyi and Vibrio alginolyticus, were cultured in trypticase soy broth/agar (1.5% NaCl), 25° C.

Assay [6] deals with E. coli. The assay is described as follows: microbe, parasite or virus in culture. On the procedure: as §1, §2
Assay [7] relates to Vibrio alginolyticus. Kind of assay: microbe, parasite or virus in culture. On the procedure: as §1, §2
Assay [8] relates to Fusarium pisi. Kind of assay: MIC and MBC analysis against the filamentous fungus Fusarium pisi. Type of assay: cell-based. On the procedure: as §1
Assay [9] has as its system Aerococcus viridian. Kind of assay: Bacteriostatic (MIC) and bactericidal (MBC) analysis against Aerococcus viridian. The assay is classed as cell-based. On the procedure:
as §1

Assay [10] concerns Fusarium oxysporum. The assay is described as follows: MIC and MBC analysis against the filamentous fungus Fusarium oxysporum. Type of assay: cell-based.

Values after ≈ are worked out from the molar mass of the structure shown. Like-named read-outs stand apart in the source and are kept apart here. No end group written: not given here. A value given as a limit tells only on which side of the number the result lay.

Regarding “QGYQGGYTRPFPRPPYGGGYHPVPVCTSCHRLSPLQARACCRQLGRCCDAKQTYG (cysteines drawn unpaired) [Monodoncin]”, in [1], the “mortality rate relative to that in the untreated group” value worked out at 40% and the “reduction of tiger shrimp mortality” value was “at least 40%”. Further, in assay [2], the “number of bacteria in the culture” value is listed as “significantly reduced”.
`CC1(C)S[C@@H]2[C@H](NC(=O)[C@H](N)c3ccc(O)cc3)C(=O)N2[C@H]1C(=O)O` [Amoxicillin, amoxicillin]: the MIC was above 64 µg in assay [3] (Strand 74, amoxicillin alone) and above 64 µg in [4] (Strand 75, amoxicillin alone).
In assay [3] (Strand 74, peptide alone), Cecropin came in with an MBC of 31.2 µg/mL and an MIC of 16.5 µg/mL. In [4] (Strand 75, peptide alone), the MBC is above 31.2 µg/mL and the MIC was determined as 31.2 µg/mL.
As for `CN(C)[C@@H]1C(O)=C(C(N)=O)C(=O)[C@@]2(O)C(O)=C3C(=O)c4c(O)cccc4[C@@](C)(O)[C@H]3C[C@@H]12` [Tetracycline, tetracycline], the MBC in assay [5] (Vibrio harveyi) is 403 µM (≈ 179 µg/mL); in [6] (Escherichia coli), 403 µM (≈ 179 µg/mL); in [7] (Vibrio alginolyticus), above 202 µM; in assay [8] (Fusarium vanettenii), above 500 µM; in [9] it was 300 µM (≈ 133 µg/mL); in assay [10] it was 500 µM (≈ 222 µg/mL). The MIC in [5] (Vibrio harveyi) was found to be 6.3 µM (≈ 2.8 µg/mL); in assay [7] (Vibrio alginolyticus) it was 25.2 µM (≈ 11.2 µg/mL); in assay [8] (Fusarium vanettenii), 300 µM (≈ 133 µg/mL); in assay [9], 30 µM (≈ 13.3 µg/mL); in assay [10] it was 500 µM (≈ 222 µg/mL).
For magainins, the MBC is 30 µM in assay [5] (Vibrio harveyi); 70 µM in [6] (E. coli); 300 µM in assay [7] (Vibrio alginolyticus); 1 µM in assay [8]; 5 µM in assay [9]; 1 µM in [10]. Further, the MIC in [5] (Vibrio harveyi) is 30 µM; in [6] (E. coli) it was 40 µM; in [7] (Vibrio alginolyticus) it was 150 µM; in [8] it was 1 µM; in assay [9] it was 1 µM; in [10], 1 µM.
Take “GWGSFFKKAAHVGKHVGKAALTHYL-NH2 (C-terminus assumed) [Pleurocidin, pleurocidin]”: the MBC is 200 µM in assay [5], 500 µM in assay [6] and above 500 µM in [7]. The results for the MIC in assay [5], in assay [6] and in assay [7] were 200 µM, 450 µM and 500 µM, respectively.
